Assays:
MCT1 = MCT1 (Rattus norvegicus (Rat), UniProt P53987); experiment: Test A. MCT1 inhibition via lactate uptake in rat brain endothelial (RBE4) cells; format: cell-based; conditions: 14C-lactate uptake
Procedure: Test A. MCT1 Inhibition Via Lactate Uptake Rat Brain Endothelial Cells
The entire lactate uptake studies for the inhibition of MCT1 were carried out on RBE4 (Rat Brain Endothelial 4) cells. The expression of MCT1 on these cells was confirmed by Western Blotting. The cells were plated approximately 20-24 hours before the experiment, the number of cells being approximately 10^5 cells per well. The test compounds were dissolved in DMSO and diluted 1000 times using a solution of HEPES buffer (pH 7.43) which consists of 3 μM ^14C-Lactate and 2 μM L-Lactate. The cells were washed twice with 500 μL of HEPES buffer and the cells were allowed to equilibrate for 15 minutes at 37° C. The HEPES buffer was removed and 250 μL of the test sample was added in triplicates. This was repeated for all the compounds, including the controls (CHC and DMSO). After 15 minutes, the compounds were removed from the well and 500 μL of ice-cold stop buffer (0.1 mM CHC solution in HEPES buffer) was added. The plate was kept on ice. Now, the HEPES buffer in one triplicate was removed and DMSO solution was added and immediately removed and ice-cold stop buffer was added. This was considered as “Zero”. One triplicate was left blank, which was used for protein assay after lysing the cells. The cells were washed twice with ice-cold HEPES buffer and then 250 μL of 0.1M NaOH in 5% Triton-X solution was added and the plate is kept on a shaker for 40 minutes to lyse the cells. 150 μL of the lysed cells was added into 4 mL of the scintillation fluid in a scintillation vial and scintillation count was obtained in disintegrations per minute (dpm). The percent inhibition values were calculated by taking DMSO as minimum. Concentration study (usually 9-12 dilutions) was done to determine the IC50 of each compound.

[1] = Toxicity study in healthy ICR mice (body weight, WBC, RBC); format: in vivo; conditions: for RBC ± SEM / WBC ± SEM: end of day 22
Procedure: 60 ICR mice weighing ˜27 grams were randomly assigned into 5 groups (12 animals, 6 male and 6 female per group), one group being the control group without any drug administration (food only). The drugs were administered twice daily by P.O. or I.P. Group 1 and 3 were administered orally with 50 mg/Kg of Compound 20 and 18 mg/Kg of Compound 14 respectively. Group 2 and 4 mice were injected intraperitoneally with 6.67 mg/Kg of Compound 20 and 5.3 mg/Kg of Compound 14 (dissolved in water) respectively. The body weights of mice were recorded daily for 22 days. At the end of the 22nd day, 3 mice were randomly selected from each group and their blood samples were collected for detailed analysis of white blood cell (WBC) and red blood cell (RBC) counts. The mice were then euthanized with CO2.

[2] = Toxicity study in BALB/c nude mice containing WiDr colorectal adenocarcinoma xenograft (body weight); format: in vivo; conditions: BALB/c nude mice with WiDr xenograft, 8 mg/kg i.p. twice daily
Procedure: Female BALB/c nude mice weighing ˜20 g were taken and 5.0 10^6 WiDr cancer cells were implanted into their right flanks with a 1:1 mixture of 0.1 mL PBS and matrigel. The tumor was allowed to grow to a size of ˜150 cubic millimeters (14 days). The mice were randomly chosen by chance and assigned into 5 groups (6 mice per group), one group being the control group to which tumor was allowed to grow without any drug administration (food only). The drugs were administered twice daily by P.O. or I.P. Group 1 mice were administered orally with 50 mg/kg of Compound 20. Groups 2, 3 and 4 mice were treated via IP with 10 mg/kg Compound 20, 8 mg/kg of Compound 14 and 238 mg/kg CHC respectively. Body weight changes were recorded every two days for 3 weeks.

MCT1, sequence (P53987 whole entry): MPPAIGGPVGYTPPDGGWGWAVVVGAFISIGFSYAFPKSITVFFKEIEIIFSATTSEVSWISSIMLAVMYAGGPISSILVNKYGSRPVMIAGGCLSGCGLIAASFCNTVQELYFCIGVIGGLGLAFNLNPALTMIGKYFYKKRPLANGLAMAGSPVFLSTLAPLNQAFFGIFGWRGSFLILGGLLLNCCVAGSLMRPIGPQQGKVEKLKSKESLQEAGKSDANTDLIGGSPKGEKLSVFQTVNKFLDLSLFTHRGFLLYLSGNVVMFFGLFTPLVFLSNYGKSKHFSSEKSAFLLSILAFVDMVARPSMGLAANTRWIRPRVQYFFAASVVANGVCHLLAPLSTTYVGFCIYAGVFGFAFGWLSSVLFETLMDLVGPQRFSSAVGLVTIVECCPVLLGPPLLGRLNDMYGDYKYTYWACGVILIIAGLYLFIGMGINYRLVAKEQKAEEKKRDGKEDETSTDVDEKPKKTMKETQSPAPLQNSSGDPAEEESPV
MCT1, sequence (P26453 141-388 partner): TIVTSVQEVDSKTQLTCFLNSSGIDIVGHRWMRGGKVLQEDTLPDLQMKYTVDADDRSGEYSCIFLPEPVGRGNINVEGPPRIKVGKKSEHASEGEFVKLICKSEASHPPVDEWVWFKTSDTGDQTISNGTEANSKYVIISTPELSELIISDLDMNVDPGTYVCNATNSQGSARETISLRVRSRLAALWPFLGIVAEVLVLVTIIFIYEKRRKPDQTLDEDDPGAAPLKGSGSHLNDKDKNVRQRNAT

CCCCN(CCCC)c1ccc(/C=C(\C#N)C(=O)O)cc1 [Compound 4]
IC50 (MCT1): 0.026 µM

CCCCCN(CCCCC)c1ccc(/C=C(\C#N)C(=O)O)cc1 [Compound 5]
IC50 (MCT1): 0.12 µM

CCCCCCN(CCCCCC)c1ccc(/C=C(\C#N)C(=O)O)cc1 [Compound 6]
IC50 (MCT1): 0.95 µM

C=CCN(CC=C)c1ccc(/C=C(\C#N)C(=O)O)cc1 [Compound 7]
IC50 (MCT1): 0.088 µM

C#CCN(CC#C)c1ccc(/C=C(\C#N)C(=O)O)cc1 [Compound 8]
IC50 (MCT1): 0.34 µM

CC(C)CN(CC(C)C)c1ccc(/C=C(\C#N)C(=O)O)cc1 [Compound 9]
IC50 (MCT1): 0.066 µM

N#C/C(=C\c1ccc(N(Cc2ccccc2)Cc2ccccc2)cc1)C(=O)O [Compound 10]
IC50 (MCT1): 0.043 µM

N#C/C(=C\c1ccc(N2CCCC2)cc1)C(=O)O [Compound 11]
IC50 (MCT1): 0.064 µM

N#C/C(=C\c1ccc(N2CCCCC2)cc1)C(=O)O [Compound 12]
IC50 (MCT1): 0.11 µM

CCCN(CCC)c1ccc(/C=C(\C#N)C(=O)O)c(OC)c1 [Compound 13]
IC50 (MCT1): 0.0095 µM

CCCCN(CCCC)c1ccc(/C=C(\C#N)C(=O)O)c(OC)c1 [Compound 14]
IC50 (MCT1): 0.0076 µM
Weight in grams (Day 0) ([1]; 5.3 mg/kg i.p. twice daily): 27.05 grams
Weight in grams (Day 22) ([1]; 5.3 mg/kg i.p. twice daily): 32.53 grams
RBC ± SEM ([1]; 5.3 mg/kg i.p. twice daily): 1.58 ± 0.05 10^13/L
WBC ± SEM ([1]; 5.3 mg/kg i.p. twice daily): 5.80 ± 0.72 10^10/L
Weight in grams (Day 0) ([1]; 18 mg/kg p.o. twice daily): 27.04 grams
Weight in grams (Day 22) ([1]; 18 mg/kg p.o. twice daily): 32.60 grams
RBC ± SEM ([1]; 18 mg/kg p.o. twice daily): 1.58 ± 0.02 10^13/L
WBC ± SEM ([1]; 18 mg/kg p.o. twice daily): 4.57 ± 0.49 10^10/L
Weight in grams (Day 0) ([2]; Day 0): 22.08 grams
Weight in grams (Day 22) ([2]; Day 22): 23.50 grams

CCCCCN(CCCCC)c1ccc(/C=C(\C#N)C(=O)O)c(OC)c1 [Compound 15]
IC50 (MCT1): 0.023 µM

C=CCN(CC=C)c1ccc(/C=C(\C#N)C(=O)O)c(OC)c1 [Compound 16]
IC50 (MCT1): 0.025 µM

C#CCN(CC#C)c1ccc(/C=C(\C#N)C(=O)O)c(OC)c1 [Compound 17]
IC50 (MCT1): 0.091 µM

COc1cc(N(CC(C)C)CC(C)C)ccc1/C=C(\C#N)C(=O)O [Compound 18]
IC50 (MCT1): 0.015 µM

COc1cc(N(Cc2ccccc2)Cc2ccccc2)ccc1/C=C(\C#N)C(=O)O [Compound 19]
IC50 (MCT1): 0.019 µM

COc1cc(N2CCCC2)ccc1/C=C(\C#N)C(=O)O [Compound 21]
IC50 (MCT1): 0.059 µM

CCCN(CCC)c1ccc2cc(C(=O)O)c(=O)oc2c1 [Compound 22]
IC50 (MCT1): 0.299 µM

C=CCN(CC=C)c1ccc2cc(C(=O)O)c(=O)oc2c1 [Compound 23]
IC50 (MCT1): 0.25 µM

C#CCN(CC#C)c1ccc2cc(C(=O)O)c(=O)oc2c1 [Compound 24]
IC50 (MCT1): 0.15 µM

O=C(O)c1cc2ccc(N(Cc3ccccc3)Cc3ccccc3)cc2oc1=O [Compound 25]
IC50 (MCT1): 0.048 µM

O=C(O)c1cc2ccc(N3CCCC3)cc2oc1=O [Compound 26]
IC50 (MCT1): 0.22 µM

O=C(O)c1cc2ccc(N(Cc3ccc(F)cc3)Cc3ccc(F)cc3)cc2oc1=O [Compound 27]
IC50 (MCT1): 0.2 µM

O=C(O)c1cc2ccc(N(Cc3ccc(Cl)cc3)Cc3ccc(Cl)cc3)cc2oc1=O [Compound 28]
IC50 (MCT1): 0.92 µM

O=C(O)c1cc2ccc(N(Cc3ccc4c(c3)OCO4)Cc3ccc4c(c3)OCO4)cc2oc1=O [Compound 29]
IC50 (MCT1): 0.11 µM
